Results published in paper PMC12591484 (PLOS One, 2025).

How the values were obtained:
Assay in all cases: Effects of cysteine modification with pCMBS on Low/High GABA response ratio
Type in all cases: cell-based
[1] = biological target: T1, α1S270Cβ3γ2L GABAA receptors (Homo sapiens, UniProt P14867+P18507+P28472, S297C)
T1 construct: expressed in transfected cells; host or cells: Xenopus oocytes injected with capped mRNA, 1α:1β:5γ
Protocol: (§1) The pCMBS exposure was calculated as concentration × time (e.g. 100 μM × 30 s = 3000 µM × s). […] The pCMBS exposures were varied to generate modification ratio vs. pCMBS exposure curves. Each oocyte was studied at a single pCMBS exposure condition. For each cysteine mutant, 5 oocytes were studied at 4 to 7 pCMBS exposure conditions. The modification ratio vs. pCMBS exposure curves were fit with mono-phasic or bi-phasic logistic equations similar to Eq 1, using non-linear least squares.

[2] = biological target: T2, α1β3γ2I242C GABAA receptors (Homo sapiens, UniProt P14867+P18507+P28472, I281C); conditions: post- to pre-modification Low/High GABA response ratio
T2 construct: expressed in transfected cells; host or cells: Xenopus oocytes injected with capped mRNAs mixed 1α:1β:5γ
T2 sequence (P18507 40-475 I281C, one chain of several): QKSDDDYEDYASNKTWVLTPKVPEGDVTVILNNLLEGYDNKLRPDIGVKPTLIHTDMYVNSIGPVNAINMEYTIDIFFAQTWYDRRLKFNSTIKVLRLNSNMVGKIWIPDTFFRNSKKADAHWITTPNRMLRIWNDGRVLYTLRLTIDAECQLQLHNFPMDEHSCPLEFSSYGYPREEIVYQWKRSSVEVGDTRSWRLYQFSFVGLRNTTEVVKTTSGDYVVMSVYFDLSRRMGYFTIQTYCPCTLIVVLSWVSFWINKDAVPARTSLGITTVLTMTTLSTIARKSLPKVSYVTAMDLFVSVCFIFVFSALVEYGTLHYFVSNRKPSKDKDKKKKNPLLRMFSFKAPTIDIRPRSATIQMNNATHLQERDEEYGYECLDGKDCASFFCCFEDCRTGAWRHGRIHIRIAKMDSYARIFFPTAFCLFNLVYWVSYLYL
Protocol: as §1

[3] = biological target: T3, α1β3M286Cγ2L GABAA receptors (Homo sapiens, UniProt P14867+P18507+P28472, M311C); conditions: post- to pre-modification Low/High GABA response ratio
T3 construct: expressed in transfected cells; host or cells: Xenopus oocytes injected with capped mRNA, 1α:1β:5γ
T3 sequence (P28472 26-473 M311C, one chain of several): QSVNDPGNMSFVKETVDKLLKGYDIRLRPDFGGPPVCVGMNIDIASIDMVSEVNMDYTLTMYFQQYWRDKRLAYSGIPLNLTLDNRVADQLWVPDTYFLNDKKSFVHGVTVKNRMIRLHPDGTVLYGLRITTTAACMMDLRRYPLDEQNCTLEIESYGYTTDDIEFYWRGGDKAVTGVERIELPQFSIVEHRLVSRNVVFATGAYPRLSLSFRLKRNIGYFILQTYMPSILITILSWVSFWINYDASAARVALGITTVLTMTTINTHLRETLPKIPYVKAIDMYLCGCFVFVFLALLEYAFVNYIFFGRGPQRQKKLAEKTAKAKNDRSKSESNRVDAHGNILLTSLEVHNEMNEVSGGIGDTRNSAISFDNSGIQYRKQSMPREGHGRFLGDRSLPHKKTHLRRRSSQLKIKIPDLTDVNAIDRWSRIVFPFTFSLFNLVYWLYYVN
T3 sequence (P18507 40-475, one chain of several): as the sequence (P18507 40-475 I281C, one chain of several) above, with C242I counted along it
Protocol: as §1

[4] = biological target: T4, α1β3γ2L246C GABAA receptors (Homo sapiens, UniProt P14867+P18507+P28472, L285C); conditions: post- to pre-modification Low/High GABA response ratio
T4 construct: expressed in transfected cells; host or cells: Xenopus oocytes injected with capped mRNAs mixed 1α:1β:5γ
T4 sequence (P18507 40-475 L285C, one chain of several): as the sequence (P18507 40-475 I281C, one chain of several) above, with C242I, L246C counted along it
Protocol: as §1

[5] = biological target: T5, α1M236Cβ3γ2L GABAA receptors (Homo sapiens, UniProt P14867+P18507+P28472, M263C); conditions: post- to pre-modification Low/High GABA response ratio
T5 construct: expressed in transfected cells; host or cells: Xenopus oocytes injected with capped mRNA, 1α:1β:5γ
T5 sequence (P14867 28-456 M263C, one chain of several): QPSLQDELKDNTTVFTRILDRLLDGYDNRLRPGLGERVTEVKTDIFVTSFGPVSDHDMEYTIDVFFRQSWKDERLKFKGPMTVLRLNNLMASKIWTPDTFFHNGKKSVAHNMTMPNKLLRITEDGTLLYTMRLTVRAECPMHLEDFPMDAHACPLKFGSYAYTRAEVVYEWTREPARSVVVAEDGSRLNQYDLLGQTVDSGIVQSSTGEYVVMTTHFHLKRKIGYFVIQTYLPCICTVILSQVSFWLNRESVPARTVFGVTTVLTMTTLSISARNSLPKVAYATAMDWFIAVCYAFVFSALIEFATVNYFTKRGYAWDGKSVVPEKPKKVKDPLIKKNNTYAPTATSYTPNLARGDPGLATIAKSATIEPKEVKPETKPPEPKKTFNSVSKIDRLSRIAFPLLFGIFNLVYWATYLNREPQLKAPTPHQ
T5 sequence (P18507 40-475, one chain of several): as the sequence (P18507 40-475 I281C, one chain of several) above, with C242I counted along it
Protocol: as §1

[6] = biological target: T6, α1A291Cβ3γ2L GABAA receptors (Homo sapiens, UniProt P14867+P18507+P28472, A318C)
T6 construct: expressed in transfected cells; host or cells: Xenopus oocytes injected with capped mRNA, 1α:1β:5γ
T6 sequence (P14867 28-456 A318C, one chain of several): as the sequence (P14867 28-456 M263C, one chain of several) above, with C236M, A291C counted along it
T6 sequence (P18507 40-475, one chain of several): as the sequence (P18507 40-475 I281C, one chain of several) above, with C242I counted along it
Protocol: as §1

[7] = biological target: T7, α1β3γ2S301C GABAA receptors (Homo sapiens, UniProt P14867+P18507+P28472, S340C); conditions: post- to pre-modification Low/High GABA response ratio
T7 construct: expressed in transfected cells; host or cells: Xenopus oocytes injected with capped mRNAs mixed 1α:1β:5γ
T7 sequence (P14867 28-456): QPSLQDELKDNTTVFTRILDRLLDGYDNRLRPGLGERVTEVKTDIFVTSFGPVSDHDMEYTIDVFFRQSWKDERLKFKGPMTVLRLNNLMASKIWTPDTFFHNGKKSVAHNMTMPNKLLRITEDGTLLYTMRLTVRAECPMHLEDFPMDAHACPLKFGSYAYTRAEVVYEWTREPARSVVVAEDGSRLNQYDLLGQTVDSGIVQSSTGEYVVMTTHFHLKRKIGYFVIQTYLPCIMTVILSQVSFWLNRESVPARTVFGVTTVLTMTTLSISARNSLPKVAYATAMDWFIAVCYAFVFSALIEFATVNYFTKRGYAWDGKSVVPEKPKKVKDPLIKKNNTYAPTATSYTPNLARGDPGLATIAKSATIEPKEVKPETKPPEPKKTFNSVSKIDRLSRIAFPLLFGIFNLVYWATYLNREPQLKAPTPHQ
T7 sequence (P28472 26-473): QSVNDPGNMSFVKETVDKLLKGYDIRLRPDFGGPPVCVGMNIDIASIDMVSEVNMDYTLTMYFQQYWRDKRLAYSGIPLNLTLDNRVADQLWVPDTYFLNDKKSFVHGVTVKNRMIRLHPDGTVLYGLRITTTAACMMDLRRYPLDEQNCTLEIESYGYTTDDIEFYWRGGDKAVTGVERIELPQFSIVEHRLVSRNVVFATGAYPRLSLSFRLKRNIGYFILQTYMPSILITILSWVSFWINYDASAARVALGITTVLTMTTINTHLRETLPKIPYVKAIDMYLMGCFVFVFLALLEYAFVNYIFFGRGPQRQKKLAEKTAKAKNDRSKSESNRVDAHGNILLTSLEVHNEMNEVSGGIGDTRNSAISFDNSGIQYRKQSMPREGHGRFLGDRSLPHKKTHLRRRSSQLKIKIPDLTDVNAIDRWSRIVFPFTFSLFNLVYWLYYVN
T7 sequence (P18507 40-475 S340C): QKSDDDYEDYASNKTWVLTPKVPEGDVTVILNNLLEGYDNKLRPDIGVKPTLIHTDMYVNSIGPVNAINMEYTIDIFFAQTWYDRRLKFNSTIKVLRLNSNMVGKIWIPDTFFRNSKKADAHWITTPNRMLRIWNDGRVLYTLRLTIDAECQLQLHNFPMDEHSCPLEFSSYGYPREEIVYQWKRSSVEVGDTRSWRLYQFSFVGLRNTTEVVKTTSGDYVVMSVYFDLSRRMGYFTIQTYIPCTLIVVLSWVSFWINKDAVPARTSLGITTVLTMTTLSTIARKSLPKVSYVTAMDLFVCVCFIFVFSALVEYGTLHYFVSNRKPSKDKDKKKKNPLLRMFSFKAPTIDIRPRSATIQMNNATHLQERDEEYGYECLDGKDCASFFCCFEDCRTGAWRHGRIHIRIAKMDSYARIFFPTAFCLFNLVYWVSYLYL
Protocol: as §1

[8] = biological target: T8, α1β3L231Cγ2L GABAA receptors (Homo sapiens, UniProt P14867+P18507+P28472, L256C); conditions: post- to pre-modification Low/High GABA response ratio
T8 construct: expressed in transfected cells; host or cells: Xenopus oocytes injected with capped mRNA, 1α:1β:5γ
T8 sequence (P28472 26-473 L256C, one chain of several): as the sequence (P28472 26-473 M311C, one chain of several) above, with L231C, C286M counted along it
T8 sequence (P18507 40-475, one chain of several): as the sequence (P18507 40-475 I281C, one chain of several) above, with C242I counted along it
Protocol: as §1

T1 sequence (P14867 28-456 S297C, one chain of several): as the sequence (P14867 28-456 M263C, one chain of several) above, with C236M, S270C counted along it
T1 sequence (P18507 40-475, one chain of several): as the sequence (P18507 40-475 I281C, one chain of several) above, with C242I counted along it

O=S(=O)([O-])c1cc[c]([Hg][Cl])cc1.[Na+] [pCMBS, para-chloromercuribenzenesulfonic acid sodium salt]
pCMBS exposure with maximum effect on modification ratio ([1]; α1S270C, biphasic effect of increasing pCMBS exposure): 300 µM x s
Maximal pCMBS Modification Ratio Mean ± SD ([1]; α1S270Cβ3γ2L, post- to pre-modification Low/High GABA response ratio, biphasic): 11.8 ± 0.77
Maximal pCMBS Modification Ratio Mean ± SD [2]: 17 ± 4.9
Maximal pCMBS Modification Ratio Mean ± SD [3]: 9 ± 3.1
Maximal pCMBS Modification Ratio Mean ± SD [4]: 5 ± 1.0
Maximal pCMBS Modification Ratio Mean ± SD [5]: 13 ± 1.4
modification ratio, control modification, single oocyte example (Fig 2A) ([6]; 3 mM GABA + 10 µM pCMBS for 90 s): 4.0
Maximal pCMBS Modification Ratio Mean ± SD ([6]; post- to pre-modification Low/High GABA response ratio): 4.7 ± 0.61
Maximal pCMBS Modification Ratio Mean ± SD [7]: 5.3 ± 0.23
Maximal pCMBS Modification Ratio Mean ± SD [8]: 13 ± 1.3
